Experimental findings from patent US5994336A, “Method of inhibiting proliferation of cells by administering an aminosterol compound” (priority 1995, dated 1999) are described below.

One series deals with human NHE1. Put plainly: NHE1 inhibition, internal pH (BCECF-AM) in transfected PS120 fibroblasts. The format is cell-based. Particulars: 5 μg/ml; FIG. 2B. The method, then:
(§1) PS120 fibroblasts transfected with rabbit or human NHE1 were grown as described above.

Another series relates to rabbit NHE1. Described as above. The format is cell-based. Particulars: 5 μg/ml; FIG. 2A. The method, then: as §1
The next series relates to human melanoma 1205Lu. The series is described as follows: Suppression of growth of human melanoma in RAG-1 mice. The format is in vivo. From the text: As apparent from FIG. 5, melanoma 1205Lu develops aggressively in RAG-1 mice after implantation.
Series [1] has as its system capillaries of the chorioallantoic membrane. The series is described as follows: Inhibition of capillary growth in chorioallantoic membrane (CAM) model. The format is in vivo, chick. The source says: The growing capillaries within the chorioallantoic membrane model (CAM model) have been used as a system in which to evaluate the effect of agents on their potential to inhibit new vessel growth. Neovascularization occurs most aggressively over the first week of embryonic development. Thereafter capillary growth is characterized by principally "elongation" rather than "de novo" formation.
In the standard assay, agents are applied locally to a region of the embryo over which neovascularization will occur. Agents are assessed by their ability to inhibit this process, as evaluated by visual examination about 7 days after application. […] The assay utilized is described in detail in Auerbach et al., Pharm. Ther. 51, 1991, 1-11.

In series [2] the test system is human epithelial cell line MCF 10A. The series is described as follows: Growth inhibition in vitro (absorbance at 600 nm). The format is cell-based. To be noted: 10 μg/ml; FIG. 3B.
Series [3] deals with PHA-stimulated human lymphocytes. Put plainly: Inhibition of mitogen (PHA)-stimulated growth of human T-cells. The format is cell-based. From the text: Results are tabulated below.
In series [4] the test system is human umbilical venous endothelial cells. Put plainly: LPS-induced neutrophil adherence. The format is cell-based. Particulars: squalamine 10 μg, 1.0 μg or 0.1 μg. From the text: Methods 109, 1988, 175-184.

For the compound `CC(C)[C@@H](CC[C@@H](C)[C@H]1CC[C@H]2[C@@H]3[C@H](O)C[C@H]4C[C@@H](NCCCNCCCCN)CC[C@]4(C)[C@H]3CC[C@]12C)OS(=O)(=O)O` [squalamine], in the series on human NHE1, the “inhibitory activity against human NHE1” value is listed as “no inhibitory activity”. In the series with rabbit NHE1, the “inhibitory activity against rabbit NHE1” value is recorded as “no inhibitory activity”. Further, the “suppression of tumor growth” value in the series on human melanoma 1205Lu (10, 20, 40 mg/kg/d, FIG. 5) is “clear suppression of tumor growth in a dose-dependent fashion”. In addition, the “reversibility after cessation of treatment” value in the series on human melanoma 1205Lu (words) is reported as “reversible”. In series [1] (3-day CAM, 0.65 μg), the “inhibition of CAM vessel neovascularization” value was “inhibition of CAM vessel neovascularization”. Further, the vascular irritation entry in series [1] (3-day embryo, 20 and 40 μg (values marked *)) is on record as “Some vascular irritation noted”. Further, the “Percentage positive (positive/total)” value in series [1] (13-day embryo, 5.0 μg applied) is 0/26. For the same compound, the “inhibition of CAM capillary growth” value in series [1] (13-day old chick, ten times 0.65 μg) is “no inhibitory effect”. Moreover, in series [2], the “growth of epithelial line” value is “no effect”. In addition, the “inhibition of blast transformation” value in series [3] is listed as “Some effect”. Further, the “inhibition of neutrophil adherence” value in series [4] is “no inhibition”.
